# Experimental data reported in PubChem BioAssay AID602210 (Sanford-Burnham Center for Chemical Genomics, 2012).
# The source made the active and inactive calls. How the calls were made is not given here.
# Assay: modulators of 2-deoxyglucose-induced H9c2 death, dose response, myocardial damage modulator project, cell-based, ATPlite luminescence, rat, set 2 (AID 602210)
# Settings: H9c2 rat cardiomyoblasts, 2-deoxyglucose-induced death, 2 h
row,Compound,IC50
1,N#C/C(=C\c1ccc(-c2cccc([N+](=O)[O-])c2)o1)C(=O)NCCN1CCOCC1,> 79 µM (inactive)
2,COc1ccc(Nc2nc(C(=O)N3CCc4cc(OC)c(OC)cc4C3)cs2)cc1,14.2 µM (inactive)
3,COc1cc(-c2cc(C(=O)N3CCN(c4ccccn4)CC3)c3ccccc3n2)cc(OC)c1OC,26.2 µM (inactive)
4,COC(=O)c1cc(C(=O)OCC(=O)N2c3ccccc3NC(=O)C2(C)C)cc([N+](=O)[O-])c1,47.6 µM (inactive)
5,Cn1c(=O)c2[nH]c(NN=Cc3cccc(Br)c3)nc2n(C)c1=O,7.47 µM
6,C=C1C(C)C2C(Cc3ccccc3)NC(=O)C23OC(=O)/C=C/C(O)CCCC(C)C/C=C/C3C1O (stereo unspecified),0.95 µM
7,COc1cc2c(C#CCCO)c(-c3ccsc3)oc(=O)c2cc1OC,6.34 µM
8,C[C@H]1Cn2cnc(C(=O)N[C@@H](Cc3c[nH]c4ccccc34)C(=O)OC(C)(C)C)c2C(=O)N1,24.7 µM (inactive)
9,CCN(CC)S(=O)(=O)c1ccc(N2CCOCC2)c(NC(=O)c2cc(-c3ccccn3)nc3ccccc23)c1,4.51 µM
10,COc1cc(-c2cc3nc(NCCc4ccc(S(N)(=O)=O)cc4)ccn3n2)cc(OC)c1OC,15.6 µM (inactive)
11,CC(C)(C)OC(=O)C[C@@H]1C/C=C\C[C@@H](CC(=O)N[C@H](CO)Cc2ccccc2)C(=O)NC[C@@H](c2ccccc2)OC1=O,64 µM (inactive)
12,COc1cc(/C=N/n2nnnc2Nc2ccccc2)cc(OC)c1OC,38.1 µM (inactive)
13,CC(=O)Nc1cc(-c2cccc(C(=O)N(C)C)c2)cn2c(-c3ccc(C(C)=O)cc3)cnc12,27.1 µM (inactive)
14,COc1ccc(-c2csc(NC(=O)c3cccc(N4C(=O)CCC4=O)c3)n2)cc1OC,13.1 µM (inactive)
15,CC(=O)c1cccc(NC(=O)Nc2ccc3c(c2)N(C)C(=O)CS3)c1,> 79 µM (inactive)
16,Cn1c2ccccc2c2cc(/C=N/NC(=O)c3cc(O)ccc3O)ccc21,> 79 µM (inactive)
17,COC(=O)c1ccc2c(=O)[nH]c(COC(=O)c3[nH]c(C)c(C(C)=O)c3C)nc2c1,9.12 µM
18,Cc1nc2ccccc2c2c(N)c3ccccc3n12,32.1 µM (inactive)
19,Cc1ccc(-c2nnc3ccc(SCC(=O)N4CCCc5ccccc54)nn23)cc1,14 µM (inactive)
20,O=C(NCc1ccco1)c1cc(-c2cccnc2)nc2ccc(Cl)cc12,> 79 µM (inactive)
21,COc1ccc(CCn2c(=N)c(C(=O)NCC3CCCO3)cc3c(=O)n4cccc(C)c4nc32)cc1OC (stereo unspecified),> 79 µM (inactive)
22,CC(C)N1C(=O)S/C(=C/c2ccc3c(c2)n(C)c(=O)n3C)C1=O,7.32 µM
23,CC(=O)c1cccc(Nc2nc3ccccc3n3cnnc23)c1,8.67 µM

row,Compound,IC50
1,CCOc1cc(/C=C(\C#N)C(=O)Nc2ccc(S(N)(=O)=O)cc2)ccc1OCCN1CCOCC1,9.62 µM
2,O=C/C(=C\Nc1ccccn1)c1nc2cc(Cl)ccc2o1,> 79 µM (inactive)
3,CC(=NO)C1CCC2C3CCC4CC(=NO)CCC4(C)C3C(C)(O)CC12C (stereo unspecified),22 µM (inactive)
4,Cc1nn(-c2ccccc2)c(N2CCCC2)c1/C=N/NC(=O)c1cc(-c2ccccn2)nc2ccccc12,12.6 µM (inactive)
5,Brc1ccc(-c2nn3c(-c4ccccn4)nnc3s2)o1,42.3 µM (inactive)
6,COc1ccc(OC)c(/C=N/Nc2nncn2/N=C/c2cc(OC)ccc2OC)c1,> 79 µM (inactive)
7,O=C(NCC1CCCO1)C(c1ccc(F)cc1)N(C(=O)Cn1nnc(-c2ccc(F)cc2)n1)c1cccc(O)c1 (stereo unspecified),18.3 µM (inactive)
8,COc1nc(N/N=C/c2cc3c(cc2Br)OCO3)nc(N2CCOCC2)n1,17.4 µM (inactive)
9,Cc1nn(C)cc1C(C(=O)NC1CCCCC1)N(C(=O)Cc1cccs1)c1ccc(Cl)cc1 (stereo unspecified),29.8 µM (inactive)
10,Cc1nn2c(-c3cccc(NC(=O)c4ccco4)c3)nnc2c2ccccc12,7.77 µM
11,C[C@@H](NC(=O)c1nc[nH]c1C(=O)NCC(=O)OCc1ccccc1)c1ccccc1,9.89 µM
12,Cc1ccccc1N(C(=O)c1snc(C(N)=O)c1N)C(C(=O)NCc1ccccc1)c1ccc(O)cc1 (stereo unspecified),18 µM (inactive)
13,O=S(=O)(c1ccccc1)N1CCN(c2nc(-c3cccnc3)nc3ccccc23)CC1,12 µM (inactive)
14,CCOC(=O)c1ccc(NC(=O)c2nc[nH]c2C(=O)NCCCCCNC(=O)OC(C)(C)C)cc1,6.6 µM
15,CCOc1cc(/C=C/c2ccc3cccc([N+](=O)[O-])c3n2)ccc1OCC(=O)N(C)C,18.3 µM (inactive)
16,CCc1nc(N2CCN(C(=O)c3ccco3)CC2)c2oc3ccccc3c2n1,24.7 µM (inactive)
17,CC(=O)Nc1ccc(C(=O)N/N=C/c2ccccc2OC(=O)c2ccc(Cl)cc2)cc1,14.7 µM (inactive)
18,CCOC(=O)C(Cc1ccc(NC(=O)/C(=C/c2ccc(OC(C)=O)cc2)NC(C)=O)cc1)N1C(=O)c2ccccc2C1=O (stereo unspecified),15.6 µM (inactive)
19,COc1ccnc(Oc2ccccc2)c1C(=O)N/C=N/OCc1ccc(F)cc1Cl,8.39 µM
20,CCC(CC)C(=O)Nc1cc(C)c2c(=O)oc3ccccc3c2n1,36.4 µM (inactive)
21,COc1ccc(C(C(=O)NCc2ccccc2)N(Cc2ccco2)C(=O)c2snc(C(N)=O)c2N)cc1 (stereo unspecified),6.17 µM
22,CC(C)c1ccccc1NC(=O)COC(=O)c1c2c(nc3ccccc13)CCN(Cc1ccccc1)C2,7.98 µM
23,O=C(COC(=O)c1c2c(nc3ccccc13)/C(=C/c1cccc([N+](=O)[O-])c1)CCC2)NC1CCS(=O)(=O)C1 (stereo unspecified),12.9 µM (inactive)

row,Compound,IC50
1,COc1cc2nc(Nc3ccc(F)cc3)nc(N)c2cc1OC,> 79 µM (inactive)
2,Cc1ccccc1C1c2[nH]c3ccccc3c2C[C@H]2C(=O)N(c3ccccc3C(=O)NCCCN3CCOCC3)C(=O)N12 (stereo partly specified),46 µM (inactive)
3,COc1ccc(-c2cc3nc(C)cc(N4CCN(C(=O)c5ccoc5)CC4)n3n2)cc1,> 79 µM (inactive)
4,CCOC(=O)c1nn(-c2cccc(OC)c2)c2nc(Nc3ccccc3)cc(=O)n12,> 79 µM (inactive)
5,N#Cc1c(-c2ccco2)cc(-c2cccnc2)nc1N,26.1 µM (inactive)
6,O=C(c1cc(-c2cccnc2)nc2ccc(Br)cc12)N1CCN(c2ncccn2)CC1,16.2 µM (inactive)
7,COC(=O)/C(=C(O)\C=C\c1ccccc1[N+](=O)[O-])c1nc2ccccc2[nH]1,13.5 µM (inactive)
8,CC12C=CC(=O)CC1CCC1C2CCC2(C)C(O)C(O)CC12 (stereo unspecified),21 µM (inactive)
9,Cc1ncc(CO)c2c1Oc1nc(-c3ccccc3)nc(SCC(=O)N3CCCCC3)c1C2,> 79 µM (inactive)
10,Nc1c(C(=O)N/N=C/c2cccnc2)oc2nc(-c3ccccc3)cc(-c3ccco3)c12,3.52 µM
11,COC(=O)c1cccc(Nc2nc(-c3cccnc3)nc3ccccc23)c1,7.25 µM
12,COc1cc(NC(=O)c2ccco2)c(C(=O)OCC(=O)c2c[nH]c3ccccc23)cc1OC,6.43 µM
13,COc1ccccc1N1CCN(C(=O)c2ccc3nc(-c4ccco4)c(-c4ccco4)nc3c2)CC1,14 µM (inactive)
14,CC(=O)Nc1cccc(-c2cc(NC(C)=O)c3ncc(-c4cccc(C(C)=O)c4)n3c2)c1,13.1 µM (inactive)
15,Cc1ccc(C)c(C(=O)Nc2cc(C)nn2-c2nc(C)cc(C)n2)c1,30.1 µM (inactive)
16,CC(=O)c1ccc(N2CCN(C(=O)c3cc(-c4cccnc4)nc4ccc(Br)cc34)CC2)cc1,15.7 µM (inactive)
17,CC(=O)Nc1ccc(S(=O)(=O)N(Cc2ccco2)Cc2cc3ccccc3[nH]c2=O)cc1,8.86 µM
18,COc1ccccc1OCC(=O)N/N=C/c1cccc2cccnc12,> 79 µM (inactive)
19,Cc1ccc(C)c(NC(=O)C(Sc2nc3ccccc3c(=O)n2CC(C)C)c2ccccc2)c1 (stereo unspecified),0.34 µM
20,Cn1c(=O)n(CCc2ccccc2)c(=O)c2c1nc1n2CCN1Cc1ccco1,19.3 µM (inactive)
21,NS(=O)(=O)c1ccc(CCNC(=O)c2ccc(C#CC3(O)CCCCC3)cc2)cc1,4.94 µM
22,CCOC(=O)c1ccccc1OCc1cc(/C=N/NC(=O)c2cccnc2)ccc1OC,6.98 µM
23,COc1ccc(C(=O)Nc2nc(-c3ccccn3)cs2)cc1S(=O)(=O)N1CCOCC1,26.8 µM (inactive)

row,Compound,IC50
1,CCCn1nc(C(=O)Nc2nc(-c3ccccn3)cs2)c2ccccc2c1=O,9.03 µM
2,COc1cc(-c2cc(NC(C)=O)c3ncc(-c4ccc(C(C)=O)cc4)n3c2)cc(OC)c1OC,7.42 µM
3,COc1ccc(-c2cc(C(=O)NC(C)c3ccccn3)c3ccccc3n2)cc1OC (stereo unspecified),13.4 µM (inactive)
4,O=C(c1cc(=O)[nH]c2ccccc12)N1CCN(S(=O)(=O)c2ccc(Cl)cc2)CC1,7.15 µM
5,CCN(CC)C(=O)c1[nH]cnc1C(=O)NCC(=O)OCc1ccccc1,8.7 µM
6,CC(C)(C)OC(=O)NCC12C=CC(O1)C1C(=O)N(Cc3ccccc3)C(=O)C12 (stereo unspecified),21.5 µM (inactive)
7,CC(C)(C)NC(=O)c1cccc(NC(=O)c2ccc(NC(=O)c3ccco3)cc2)c1,18.9 µM (inactive)
8,COC(=O)c1ccc(C(C(=O)NCc2ccccc2)N(Cc2cccs2)C(=O)c2cnccn2)cc1 (stereo unspecified),13.4 µM (inactive)
9,Cc1ccc(NC(=O)c2nc[nH]c2C(=O)NCCCNC(=O)c2[nH]cnc2C(=O)Nc2ccc(C)cc2)cc1,1.33 µM
10,O=c1cc(-c2cccnc2)oc2c1ccc1ccccc12,16.4 µM (inactive)
11,COCCn1cnc2c(c1=O)c1nc3ccccc3nc1n2/N=C/c1cccc(OC)c1,> 79 µM (inactive)
12,O=C(CN1C(=O)C2CC=CCC2C1=O)Nc1nc(-c2ccc(F)cc2)cs1 (stereo unspecified),> 79 µM (inactive)
13,Cc1nc(NC(=O)c2cc3c(C)nn(-c4ccccc4)c3s2)sc1C(=O)Nc1ccccc1,> 79 µM (inactive)
14,CC(=O)NCc1ccc(-c2csc(NC(=O)CCc3nc4ccccc4c(=O)[nH]3)n2)s1,28.5 µM (inactive)
15,N#C/C(=C\Nc1ccc2c(c1)OCCO2)c1nc2ccccc2[nH]1,17.3 µM (inactive)
16,COC(=O)c1cc(NC(=O)c2cc3ccccc3o2)cc(C(=O)OC)c1,23.9 µM (inactive)
17,COc1cccc(-c2nn3c(-c4ccccn4)nnc3s2)c1,16.1 µM (inactive)
18,CCC(c1nnnn1Cc1ccccc1)N1CCC(n2c(=O)[nH]c3ccccc32)CC1 (stereo unspecified),1.98 µM
19,C[C@H](NC(=O)c1nc[nH]c1C(=O)NCC(=O)OCc1ccccc1)C(=O)OCc1ccccc1,2.8 µM
20,CCOC(=O)c1nc(Nc2ccc(C(=O)OC)cc2)c2ccccc2n1,> 79 µM (inactive)
21,Cn1c(=O)c2[nH]c(NN=Cc3ccc(Br)cc3)nc2n(C)c1=O,10.6 µM (inactive)
22,CCn1cc(C(=O)Nc2cccc(NC(C)=O)c2)c2cc(OC)c(OC)cc2c1=O,39.1 µM (inactive)
